According to ChEMBL document CHEMBL4334513, “Discovery of a Potent, Selective, and Orally Available MTHFD2 Inhibitor (DS18561882) with in Vivo Antitumor Activity” (J Med Chem, 2019):
Values after ≈ are worked out from the molar mass of the structure shown.

How the values were obtained:
[1] = molecular target: T1, Bifunctional methylenetetrahydrofolate dehydrogenase/cyclohydrolase, mitochondrial (Homo sapiens, UniProt P13995); test: Inhibition of recombinant MTHFD2 (unknown origin) using THF as substrate incubated for 30 mins in presence of NAD
T1 sequence (P13995 whole entry): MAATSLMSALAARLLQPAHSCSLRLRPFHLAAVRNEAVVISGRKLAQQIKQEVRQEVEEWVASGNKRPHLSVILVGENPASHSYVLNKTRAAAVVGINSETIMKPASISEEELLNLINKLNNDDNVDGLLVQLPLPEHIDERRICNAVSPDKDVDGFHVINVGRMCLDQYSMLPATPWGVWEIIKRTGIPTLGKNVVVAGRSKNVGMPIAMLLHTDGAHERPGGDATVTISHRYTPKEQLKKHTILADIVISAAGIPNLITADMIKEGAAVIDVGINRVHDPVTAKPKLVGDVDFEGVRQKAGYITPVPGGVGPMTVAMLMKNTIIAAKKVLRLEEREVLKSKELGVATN

[2] = molecular target: T2, C-1-tetrahydrofolate synthase, cytoplasmic (Homo sapiens, UniProt P11586)
T2 sequence (P11586 whole entry): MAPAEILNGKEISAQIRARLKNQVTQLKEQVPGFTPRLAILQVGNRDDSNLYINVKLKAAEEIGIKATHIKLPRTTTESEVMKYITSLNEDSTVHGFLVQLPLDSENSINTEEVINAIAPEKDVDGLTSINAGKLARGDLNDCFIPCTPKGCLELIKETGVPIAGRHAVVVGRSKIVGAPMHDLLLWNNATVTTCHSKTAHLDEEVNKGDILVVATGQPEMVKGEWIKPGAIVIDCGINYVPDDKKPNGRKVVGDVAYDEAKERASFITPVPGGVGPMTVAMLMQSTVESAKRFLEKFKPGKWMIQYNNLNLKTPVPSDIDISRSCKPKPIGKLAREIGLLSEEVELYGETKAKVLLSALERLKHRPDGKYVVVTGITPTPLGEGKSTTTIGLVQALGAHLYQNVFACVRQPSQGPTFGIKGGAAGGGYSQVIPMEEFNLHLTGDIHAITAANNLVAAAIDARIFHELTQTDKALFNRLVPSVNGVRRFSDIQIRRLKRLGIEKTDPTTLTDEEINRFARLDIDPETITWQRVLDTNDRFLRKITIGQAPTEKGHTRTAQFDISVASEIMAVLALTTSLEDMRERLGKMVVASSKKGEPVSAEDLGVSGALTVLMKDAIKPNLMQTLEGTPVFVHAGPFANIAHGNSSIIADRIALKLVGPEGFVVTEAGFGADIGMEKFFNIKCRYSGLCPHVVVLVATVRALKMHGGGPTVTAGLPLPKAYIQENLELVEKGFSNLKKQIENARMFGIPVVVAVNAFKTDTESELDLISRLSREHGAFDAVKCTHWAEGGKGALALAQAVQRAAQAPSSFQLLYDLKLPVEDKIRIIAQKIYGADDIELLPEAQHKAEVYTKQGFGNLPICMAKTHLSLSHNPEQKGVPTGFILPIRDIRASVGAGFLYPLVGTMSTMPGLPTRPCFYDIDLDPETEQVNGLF
Description: Inhibition of recombinant MTHFD1 (unknown origin) using THF as substrate incubated for 30 mins in presence of NAD

[3] = Dissociation constant, acidic pKa of compound; assay type: physicochemical
[4] = Effective permeability of compound at pH 7.4 by PAMPA; assay type: ADME; conditions: read-out: Peff
[5] = Lipophilicity, logP of compound; assay type: physicochemical; conditions: octanol/water
[6] = Antiproliferative activity against human MDA-MB-231-luc-D3H2LN cells assessed as inhibition of growth after 3 days by CellTiter Glo assay; assay type: functional; conditions: 72 h
[7] = Lipophilicity, logD of compound; assay type: physicochemical; conditions: octanol/water
[8] = AUC in BALBc mouse at 10 mg/kg, po measured for 24 hrs by LC-MS/MS analysis; assay type: ADME, organism-based; conditions: in vivo
[9] = AUC in BALBc mouse at 100 mg/kg, po measured for 24 hrs by LC-MS/MS analysis; assay type: ADME, organism-based; conditions: in vivo
[10] = AUC in BALBc mouse at 30 mg/kg, po measured for 24 hrs by LC-MS/MS analysis; assay type: ADME, organism-based; conditions: in vivo
[11] = AUC in BALBc mouse at 300 mg/kg, po measured for 24 hrs by LC-MS/MS analysis; assay type: ADME, organism-based; conditions: in vivo
[12] = Cmax in BALBc mouse at 10 mg/kg, po measured for 24 hrs by LC-MS/MS analysis; assay type: ADME, organism-based; parameters: dose 10 mg/kg, route oral; conditions: in vivo
[13] = Cmax in BALBc mouse at 30 mg/kg, po measured for 24 hrs by LC-MS/MS analysis; assay type: ADME, organism-based; parameters: dose 30 mg/kg, route oral; conditions: in vivo
[14] = Cmax in BALBc mouse at 100 mg/kg, po measured for 24 hrs by LC-MS/MS analysis; assay type: ADME, organism-based; parameters: dose 100 mg/kg, route oral; conditions: in vivo
[15] = Cmax in BALBc mouse at 300 mg/kg, po measured for 24 hrs by LC-MS/MS analysis; assay type: ADME, organism-based; parameters: dose 300 mg/kg, route oral; conditions: in vivo
[16] = Half life in BALBc mouse at 10 mg/kg, po measured for 24 hrs by LC-MS/MS analysis; assay type: ADME, organism-based; conditions: in vivo
[17] = Half life in BALBc mouse at 30 mg/kg, po measured for 24 hrs by LC-MS/MS analysis; assay type: ADME, organism-based; conditions: in vivo
[18] = Half life in BALBc mouse at 100 mg/kg, po measured for 24 hrs by LC-MS/MS analysis; assay type: ADME, organism-based; conditions: in vivo
[19] = Half life in BALBc mouse at 300 mg/kg, po measured for 24 hrs by LC-MS/MS analysis; assay type: ADME, organism-based; conditions: in vivo
[20] = Effective permeability of compound at pH 5 by PAMPA; assay type: ADME; conditions: read-out: Peff
[21] = Solubility of compound in pH 1.2; assay type: physicochemical; conditions: buffer
[22] = Solubility of compound in pH 6.8; assay type: physicochemical; conditions: buffer
[23] = Metabolic stability in mouse liver microsomes assessed as remaining parent compound at 1 uM after 0.5 hrs; assay type: ADME, Microsome; conditions: read-out: Stability
[24] = Fraction unbound in mouse plasma; assay type: ADME, cell-free
[25] = Free plasma concentration in BALBc mouse at 10 to 300 mg/kg, po measured after 24 hrs by LC-MS/MS analysis; assay type: ADME, organism-based; conditions: in vivo
[26] = Antitumor activity against human MDA-MB-231-Luc cells xenografted in BALB/cAJcl nu/nu mouse assessed as tumour growth inhibition at 300 mg/kg, po administered bid for 11 days and measured every 2 to 3 days relative to control; assay type: functional; conditions: read-out: TGI
[27] = Toxicity in BALB/cAJcl nu/nu mouse xenografted with human MDA-MB-231-Luc cells assessed as body weight loss at 300 mg/kg, po administered bid for 11 days and measured every 1 to 2 days; assay type: organism-based; conditions: in vivo

## Cc1cccc2oc(=O)c3c(c12)CCN(C(=O)c1ccc(C(=O)O)cc1)C3
[1]
  IC50: 1300 nM
[2]
  IC50: > 30 µM

## COc1cc(C(=O)N2CCc3c(c(=O)oc4c(C)c(N5CCN(C)CC5)ccc34)C2)ccc1NS(C)(=O)=O
[1]
  IC50: 400 nM
[3]
  pKa: 8.4
[4]
  Papp: 44.2 ×10⁻⁶ cm/s
[5]
  logP: 1.6
[6]
  GI50: 10000 nM
[2]
  IC50: > 30 µM

## CN(C)CCCOc1ccc2c3c(c(=O)oc2c1)CN(C(=O)c1ccc(C(=O)O)cc1)CC3
[1]
  IC50: 360 nM
[2]
  IC50: 18.7 µM

## CN(C)CCOc1ccc2c3c(c(=O)oc2c1)CN(C(=O)c1ccc(C(=O)O)cc1)CC3
[1]
  IC50: 340 nM
[2]
  IC50: > 30 µM

## Cc1c(N2CCN(C)CC2)ccc2c3c(c(=O)oc12)CN(C(=O)c1ccc(NS(C)(=O)=O)c(Br)c1)CC3
[1]
  IC50: 33 nM
[3]
  pKa: 6.8
[4]
  Papp: > 50 ×10⁻⁶ cm/s
[5]
  logP: 1.9
[6]
  GI50: 1600 nM
[2]
  IC50: 4.2 µM

## Cc1c(N2CCN(C)CC2)ccc2c3c(c(=O)oc12)CN(C(=O)c1ccc(NS(C)(=O)=O)c(F)c1)CC3
[1]
  IC50: 38 nM
[3]
  pKa: 6.9
[4]
  Papp: 16.9 ×10⁻⁶ cm/s
[5]
  logP: 1.7
[6]
  GI50: 2000 nM
[2]
  IC50: 8 µM

## CN1CCC(Oc2ccc3c4c(c(=O)oc3c2)CN(C(=O)c2ccc(C(=O)O)cc2)CC4)CC1
[1]
  IC50: 390 nM
[2]
  IC50: 27 µM

## Cc1cc2c3c(c(=O)oc2cc1OCCN(C)C)CN(C(=O)c1ccc(C(=O)O)cc1)CC3
[1]
  IC50: > 30000 nM
[2]
  IC50: > 30 µM

## Cc1c(OCCN(C)C)ccc2c3c(c(=O)oc12)CN(C(=O)c1ccc(C(=O)O)cc1)CC3
[1]
  IC50: 49 nM
[2]
  IC50: 5 µM

## CN(C)c1ccc(-c2ccc3c4c(c(=O)oc3c2)CN(C(=O)c2ccc(C(=O)O)cc2)CC4)cc1
[1]
  IC50: 3800 nM
[2]
  IC50: 5.4 µM

## Cc1cc(C(=O)N2CCc3c(c(=O)oc4c(C)c(N5CCN(C)CC5)ccc34)C2)ccc1NS(C)(=O)=O
[1]
  IC50: 530 nM
[3]
  pKa: 8.3
[4]
  Papp: 23.1 ×10⁻⁶ cm/s
[5]
  logP: 1.8
[6]
  GI50: 7700 nM
[2]
  IC50: > 30 µM

## CN1CCN(c2ccc3c4c(c(=O)oc3c2)CN(C(=O)c2ccc(C(=O)O)cc2)CC4)CC1
[1]
  IC50: 320 nM
[2]
  IC50: > 30 µM

## Cc1c(N2CCN(C)CC2)ccc2c3c(c(=O)oc12)CN(C(=O)c1ccc2c(c1)CS(=O)(=O)N2)CC3.O=C(O)C(F)(F)F
[1]
  IC50: 18 nM
[3]
  pKa: 5.7
[4]
  Papp: < 0.1 ×10⁻⁶ cm/s
[5]
  logP: 1.6
[6]
  GI50: 19000 nM
[2]
  IC50: 5.2 µM

## Cc1c(N2CCN(C)CC2)ccc2c3c(c(=O)oc12)CN(C(=O)c1cc(Cl)cc(NS(C)(=O)=O)c1)CC3
[1]
  IC50: 89 nM
[4]
  Papp: 6.6 ×10⁻⁶ cm/s
[5]
  logP: 1.8
[6]
  GI50: 5500 nM
[2]
  IC50: > 30 µM

## Cc1c(N2CCN(C)CC2)ccc2c3c(c(=O)oc12)CN(C(=O)c1ccc(NS(C)(=O)=O)c(OC(F)(F)F)c1)CC3
[3]
  pKa: 6.8
[4]
  Papp: 43.7 ×10⁻⁶ cm/s
[5]
  logP: 1.9
[6]
  GI50: 380 nM

## Cc1c(N2CCN(C)CC2)ccc2c3c(c(=O)oc12)CN(C(=O)c1ccc(NS(C)(=O)=O)cc1)CC3
[1]
  IC50: 200 nM
[3]
  pKa: 8.2
[4]
  Papp: 5.4 ×10⁻⁶ cm/s
[5]
  logP: 1.6
[6]
  GI50: 6300 nM
[2]
  IC50: > 30 µM

## CN(C)Cc1ccc(-c2ccc3c4c(c(=O)oc3c2)CN(C(=O)c2ccc(C(=O)O)cc2)CC4)cc1
[1]
  IC50: 340 nM
[2]
  IC50: 23 µM

## Cc1c(N2CCN(C)[C@@H](C)C2)ccc2c3c(c(=O)oc12)CN(C(=O)c1ccc(NS(C)(=O)=O)c(Cl)c1)CC3
[5]
  logP: 2
[6]
  GI50: 200 nM
[7]
  logD: 1.6

## Cc1c(N2CCN(C)[C@H](C)C2)ccc2c3c(c(=O)oc12)CN(C(=O)c1ccc(NS(C)(=O)=O)c(Cl)c1)CC3
[1]
  IC50: 130 nM
[5]
  logP: 2
[6]
  GI50: 1700 nM

## Cc1c(N2CCN(C)CC2)ccc2c3c(c(=O)oc12)CN(C(=O)c1ccc(NS(C)(=O)=O)c(Cl)c1)CC3
[3]
  pKa: 6.8
[4]
  Papp: 31.1 ×10⁻⁶ cm/s
[5]
  logP: 1.8
[6]
  GI50: 940 nM
[7]
  logD: 1.3
[8]
  AUC at 24 h: 25300 ng·h/mL
[9]
  AUC at 24 h: 306 µg·h/mL
[10]
  AUC at 24 h: 79200 ng·h/mL
[11]
  AUC at 24 h: 929 µg·h/mL
[12]
  Cmax: 3660 ng/mL
[13]
  Cmax: 12700 ng/mL
[14]
  Cmax: 37900 ng/mL
[15]
  Cmax: 82.6 µg/mL
[16]
  half-life: 164 min
[17]
  half-life: 201 min
[18]
  half-life: 211 min
[19]
  half-life: 139 min
[20]
  Papp: 7.2 ×10⁻⁶ cm/s
[21]
  solubility: 240 µg/mL (≈ 440 µM)
[22]
  solubility: 120 µg/mL (≈ 220 µM)
[23]
  remaining at 0.5 h, 1 µM: 91%
[24]
  fraction unbound: 0.153
[25]
  Cp(f): 0 µg/mL
[26]
  inhibition in vivo at 300 mg/kg: 43%
[27]
  Activity: Non-Toxic

## Cc1c(N2C[C@@H](C)N(C)[C@@H](C)C2)ccc2c3c(c(=O)oc12)CN(C(=O)c1ccc(NS(C)(=O)=O)c(Cl)c1)CC3
[5]
  logP: 2.2
[6]
  GI50: 760 nM
[7]
  logD: 1.7

## Cc1c(OCCN(C)C)ccc2c3c(c(=O)oc12)CN(C(=O)c1ccc2c(c1)CS(=O)(=O)N2)CC3
[1]
  IC50: 53 nM
[2]
  IC50: 8.4 µM
